# Assay results taken from US12440498B2 (priority 2020, dated 2025).
# Read-outs that look alike come from different tables or passages of the source.
# Experiments:
# [1] = test system: influenza; details: human, in vivo; cited from earlier work
# [2] = test system: A/H1N1 pdm09 (A/Lyon/969/2009 H1N1); format: cell-based, influenza A virus
# [3] = test system: A/H1N1 virus; test: microbe, parasite or virus in culture; format: cell-based, influenza A virus
# [4] = test system: A/H3N2 (A/Texas/50/2012 H3N2); format: cell-based, influenza A virus
# [5] = test system: A/H1N1nLuc recombinant virus; test: microbe, parasite or virus in culture; format: cell-based, influenza A virus
# [6] = test system: recombinant A/H1N1 pdm09 wildtype (WT); format: cell-based
# [7] = in vivo; cited from earlier work
# [8] = human, in vivo; cited from earlier work
# [9] = test system: flu virus; details: human, in vivo, po; cited from earlier work
compound,measurement,setting,value
CCOC(=O)C1=C[C@@H](OC(CC)CC)[C@H](NC(C)=O)[C@@H](N)C1 [oseltamivir],median time to cessation of viral shedding,[1],72 h
"O=C1c2c(O)c(=O)ccn2N([C@@H]2c3ccccc3SCc3c2ccc(F)c3F)[C@@H]2COCCN12 [baloxavir, baloxavir acid]",reduction of production of A/H1N1 infectious particles,[2],4 log 10
same,increase of IC50 relative to the initial IC50,[3],35 times
same,reduction of production of A/H3N2 infectious particles,[4],3 log 10
same,EC50,"[5]; Influenza A virus, A549",0.000144 µM
same,reduction of production of A/H1N1 infectious particles,[6],3 log 10
same,half-life (hepatic elimination),[7],50 to 90 h
COc1ccc([C@@H]2Sc3ccccc3N(CCN(C)C)C(=O)[C@@H]2OC(C)=O)cc1.Cl [diltiazem],IC50,"[3]; Influenza A virus, H1N1, MDCK, read-out: median inhibitory concentration (IC50)",5 µM
same,EC50,[5],53.8 µM
same,EC50,"[5]; Influenza A virus, A549",50.1 µM
COC(=O)OCOc1c2n(ccc1=O)N([C@@H]1c3ccccc3SCc3c1ccc(F)c3F)[C@@H]1COCCN1C2=O [baloxavir marboxil],"patients with mainly digestive side effects (nausea, diarrhea, etc.)",[8],4-5%
same,median time to cessation of viral shedding,[1],48 h
NC(=O)c1ncn([C@@H]2O[C@H](CO)[C@@H](O)[C@H]2O)n1 [ribavirin],efficacy against flu virus,[9],not effective
NC(=O)c1nc(F)c[nH]c1=O [favipiravir],EC50,"[5]; Influenza A virus, A549",2.49 µM
